Results: patent publication US11547697B2, “Heterocyclic compounds and uses thereof” (MILLENNIUM PHARMACEUTICALS, INC., priority 2009, dated 2023)
Like-named read-outs stand apart in the source and are kept apart here.

Assays:
Assay type in all cases: biochemical
p110α/p85α = p110α/p85α (Homo sapiens (Human), UniProt P42336); experiment: PI 3-Kinase (human) HTRF assay, p110α/p85α
p110β/p85α = p110β/p85α (Homo sapiens (Human), UniProt P42338); experiment: PI 3-Kinase (human) HTRF assay, p110β/p85α
p110γ = p110γ (Homo sapiens (Human), UniProt P48736); experiment: PI 3-Kinase (human) HTRF assay, p110γ
[1] = in vitro, read-out: PI3K α IC50
[2] = in vitro, read-out: PI3K β IC50
[3] = in vitro, read-out: PI3K γ IC50

p110β/p85α, sequence (P42338 whole entry): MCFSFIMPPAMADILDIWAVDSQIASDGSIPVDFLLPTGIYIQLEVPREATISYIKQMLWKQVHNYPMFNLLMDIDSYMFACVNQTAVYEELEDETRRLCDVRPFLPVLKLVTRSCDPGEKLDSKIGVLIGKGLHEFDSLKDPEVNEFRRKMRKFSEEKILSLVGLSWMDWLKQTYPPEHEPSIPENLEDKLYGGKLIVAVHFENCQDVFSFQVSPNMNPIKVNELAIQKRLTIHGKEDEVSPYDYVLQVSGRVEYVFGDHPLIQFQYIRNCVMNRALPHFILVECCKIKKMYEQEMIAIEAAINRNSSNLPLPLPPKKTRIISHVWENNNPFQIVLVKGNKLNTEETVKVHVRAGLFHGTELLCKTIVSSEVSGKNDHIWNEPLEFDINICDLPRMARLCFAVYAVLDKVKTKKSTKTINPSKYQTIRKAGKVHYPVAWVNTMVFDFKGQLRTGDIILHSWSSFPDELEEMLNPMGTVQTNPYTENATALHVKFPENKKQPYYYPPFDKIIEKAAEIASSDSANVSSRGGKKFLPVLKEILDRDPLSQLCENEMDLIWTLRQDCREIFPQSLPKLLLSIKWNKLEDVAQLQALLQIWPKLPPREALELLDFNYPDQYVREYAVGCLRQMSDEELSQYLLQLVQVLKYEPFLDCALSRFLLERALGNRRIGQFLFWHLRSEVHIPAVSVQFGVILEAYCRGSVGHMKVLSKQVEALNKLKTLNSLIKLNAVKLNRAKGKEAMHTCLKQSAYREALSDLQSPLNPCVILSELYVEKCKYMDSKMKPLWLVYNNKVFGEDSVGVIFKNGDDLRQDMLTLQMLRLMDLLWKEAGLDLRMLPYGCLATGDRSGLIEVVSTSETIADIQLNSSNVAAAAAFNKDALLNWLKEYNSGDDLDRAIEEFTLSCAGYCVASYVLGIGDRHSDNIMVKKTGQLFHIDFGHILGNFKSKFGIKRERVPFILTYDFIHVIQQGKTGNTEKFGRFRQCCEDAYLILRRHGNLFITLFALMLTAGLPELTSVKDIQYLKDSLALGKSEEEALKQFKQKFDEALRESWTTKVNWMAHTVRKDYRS
p110β/p85α, sequence (P27986 whole entry partner): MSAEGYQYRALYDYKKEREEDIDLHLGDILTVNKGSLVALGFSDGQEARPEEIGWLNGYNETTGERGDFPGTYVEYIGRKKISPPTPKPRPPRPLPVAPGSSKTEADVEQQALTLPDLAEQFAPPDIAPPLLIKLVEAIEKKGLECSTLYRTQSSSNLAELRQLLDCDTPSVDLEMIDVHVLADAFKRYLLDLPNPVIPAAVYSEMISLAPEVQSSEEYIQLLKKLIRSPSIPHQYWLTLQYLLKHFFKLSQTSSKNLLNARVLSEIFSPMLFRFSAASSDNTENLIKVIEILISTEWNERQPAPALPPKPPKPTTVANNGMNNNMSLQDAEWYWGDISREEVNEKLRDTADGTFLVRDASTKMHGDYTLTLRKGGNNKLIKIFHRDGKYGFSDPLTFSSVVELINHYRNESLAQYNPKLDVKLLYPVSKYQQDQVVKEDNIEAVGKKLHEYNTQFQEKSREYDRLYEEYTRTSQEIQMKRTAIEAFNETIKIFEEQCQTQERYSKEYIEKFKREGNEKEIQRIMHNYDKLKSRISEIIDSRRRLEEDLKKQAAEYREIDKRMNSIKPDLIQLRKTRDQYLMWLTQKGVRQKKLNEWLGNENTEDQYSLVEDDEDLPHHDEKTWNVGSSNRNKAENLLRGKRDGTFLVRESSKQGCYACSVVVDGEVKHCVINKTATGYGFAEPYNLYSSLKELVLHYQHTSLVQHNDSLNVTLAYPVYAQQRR
p110γ, sequence (P48736 whole entry): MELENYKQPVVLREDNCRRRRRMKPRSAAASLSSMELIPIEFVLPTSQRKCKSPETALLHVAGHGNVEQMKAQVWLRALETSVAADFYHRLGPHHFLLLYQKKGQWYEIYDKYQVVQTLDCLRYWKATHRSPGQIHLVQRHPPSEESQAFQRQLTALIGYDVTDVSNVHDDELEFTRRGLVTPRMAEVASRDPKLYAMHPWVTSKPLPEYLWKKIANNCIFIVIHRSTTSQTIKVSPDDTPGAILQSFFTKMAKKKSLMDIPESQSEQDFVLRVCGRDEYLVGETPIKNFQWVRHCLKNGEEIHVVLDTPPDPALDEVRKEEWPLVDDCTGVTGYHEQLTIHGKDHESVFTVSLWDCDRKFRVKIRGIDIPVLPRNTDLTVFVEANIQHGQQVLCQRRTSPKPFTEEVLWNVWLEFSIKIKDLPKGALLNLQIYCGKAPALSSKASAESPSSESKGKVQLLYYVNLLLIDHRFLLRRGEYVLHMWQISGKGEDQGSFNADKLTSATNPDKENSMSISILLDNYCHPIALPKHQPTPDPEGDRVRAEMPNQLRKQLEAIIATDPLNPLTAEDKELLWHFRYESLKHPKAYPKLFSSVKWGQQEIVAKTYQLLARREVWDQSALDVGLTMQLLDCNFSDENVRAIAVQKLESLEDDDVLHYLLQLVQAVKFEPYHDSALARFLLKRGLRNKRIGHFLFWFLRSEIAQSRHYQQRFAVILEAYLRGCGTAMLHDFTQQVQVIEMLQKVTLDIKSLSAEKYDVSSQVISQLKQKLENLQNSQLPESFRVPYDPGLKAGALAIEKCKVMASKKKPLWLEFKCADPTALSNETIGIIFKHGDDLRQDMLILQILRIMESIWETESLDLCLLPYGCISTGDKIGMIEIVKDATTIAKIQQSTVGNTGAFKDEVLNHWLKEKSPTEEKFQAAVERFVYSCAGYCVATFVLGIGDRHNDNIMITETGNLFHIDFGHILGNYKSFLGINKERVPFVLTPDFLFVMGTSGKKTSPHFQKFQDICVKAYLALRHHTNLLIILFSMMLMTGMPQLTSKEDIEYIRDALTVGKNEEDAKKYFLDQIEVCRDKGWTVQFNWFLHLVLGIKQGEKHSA
p110α/p85α, sequence (P42336 whole entry): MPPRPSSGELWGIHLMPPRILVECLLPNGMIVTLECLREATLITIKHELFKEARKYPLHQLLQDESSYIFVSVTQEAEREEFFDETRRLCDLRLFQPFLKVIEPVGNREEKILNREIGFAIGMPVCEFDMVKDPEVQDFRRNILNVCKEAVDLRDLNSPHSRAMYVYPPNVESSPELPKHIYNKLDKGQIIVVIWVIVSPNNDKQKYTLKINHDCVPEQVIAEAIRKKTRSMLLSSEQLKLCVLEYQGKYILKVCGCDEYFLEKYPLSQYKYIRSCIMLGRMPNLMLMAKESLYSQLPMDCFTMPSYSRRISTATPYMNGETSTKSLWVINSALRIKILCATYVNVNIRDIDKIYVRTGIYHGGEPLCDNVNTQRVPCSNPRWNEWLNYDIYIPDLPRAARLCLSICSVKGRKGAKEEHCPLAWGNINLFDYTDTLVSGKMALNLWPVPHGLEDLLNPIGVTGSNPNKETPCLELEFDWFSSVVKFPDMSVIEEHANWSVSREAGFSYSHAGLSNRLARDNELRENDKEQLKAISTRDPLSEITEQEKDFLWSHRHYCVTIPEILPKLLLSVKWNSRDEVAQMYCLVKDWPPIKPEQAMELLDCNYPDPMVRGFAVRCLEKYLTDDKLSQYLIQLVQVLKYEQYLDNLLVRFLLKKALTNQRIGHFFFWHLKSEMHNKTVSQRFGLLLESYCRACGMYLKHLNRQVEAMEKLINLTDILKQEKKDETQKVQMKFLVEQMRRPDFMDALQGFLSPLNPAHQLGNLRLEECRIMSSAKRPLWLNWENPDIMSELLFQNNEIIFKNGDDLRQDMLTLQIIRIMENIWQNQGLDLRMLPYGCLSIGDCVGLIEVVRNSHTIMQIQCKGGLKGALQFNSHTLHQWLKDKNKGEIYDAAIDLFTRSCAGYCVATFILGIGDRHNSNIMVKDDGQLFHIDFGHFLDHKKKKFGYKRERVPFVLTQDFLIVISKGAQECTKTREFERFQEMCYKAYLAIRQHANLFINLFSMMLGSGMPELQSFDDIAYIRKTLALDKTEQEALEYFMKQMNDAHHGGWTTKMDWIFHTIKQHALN
p110α/p85α, sequence (P27986 whole entry partner): as the sequence (P27986 whole entry partner) above

| Compound | IC50 (p110α/p85α; [1]) [nM] | IC50 (p110β/p85α; [2]) [nM] | IC50 (p110γ; [3]) [nM] | IC50 (p110α/p85α; read-out: PI3K α In Vitro IC50) [nM] | IC50 (p110β/p85α; read-out: PI3K β In Vitro IC50) [nM] | other results |
| --- | --- | --- | --- | --- | --- | --- |
| Nc1ncc2cc(-c3ccc4nccc(-c5ccncc5)c4c3)ccc2n1 [compound 9] | – | – | – | – | – | IC50 (p110α/p85α; read-out: PI3K α IC50): < 1000 nM; IC50 (p110β/p85α; read-out: PI3K β IC50): < 10000 nM; IC50 (p110γ; read-out: PI3K γ IC50): < 1000 nM |
| Nc1nc2cc(-c3ccc4ncc(N5CCOCC5)n4n3)ccc2o1 [compound 57] | – | – | – | – | – | IC50 (p110α/p85α; read-out: PI3K α IC50): < 1000 nM; IC50 (p110β/p85α; read-out: PI3K β IC50): < 1000 nM; IC50 (p110γ; read-out: PI3K γ IC50): < 10000 nM |
| Nc1nc2cc(-c3ccc4ncn(C5CCNCC5)c(=O)c4c3)ccc2o1 [compound 75] | – | – | – | – | – | IC50 (p110α/p85α; read-out: PI3K α IC50): < 100 nM; IC50 (p110β/p85α; read-out: PI3K β IC50): < 10000 nM; IC50 (p110γ; read-out: PI3K γ IC50): < 10000 nM |
| Nc1nc2cc(-c3ccc4ncc(C(=O)N5CCOCC5)n4n3)ccc2o1 [compound 105] | – | – | – | – | – | IC50 (p110α/p85α; read-out: PI3K α IC50): < 1000 nM; IC50 (p110β/p85α; read-out: PI3K β IC50): < 10000 nM; IC50 (p110γ; read-out: PI3K γ IC50): < 1000 nM |
| CN1CCN(c2cnc3ccc(-c4ccc5nc(N)oc5c4)cc3n2)CC1 [compound 118] | – | – | – | – | – | IC50 (p110α/p85α; read-out: PI3K α IC50): < 1000 nM; IC50 (p110β/p85α; read-out: PI3K β IC50): < 100 nM; IC50 (p110γ; read-out: PI3K γ IC50): < 10000 nM |
| Nc1nc2ccc(-c3ccc4ncc(C(=O)N5CCOCC5)n4c3)cc2o1 [compound 124] | – | – | – | – | – | IC50 (p110α/p85α; read-out: PI3K α IC50): < 1000 nM; IC50 (p110β/p85α; read-out: PI3K β IC50): < 1000 nM; IC50 (p110γ; read-out: PI3K γ IC50): < 1000 nM |
| Nc1nc2cc(-c3ccc4ncc(C(=O)N5CCOCC5)n4c3)ccc2s1 [compound 126] | – | – | – | – | – | IC50 (p110α/p85α; read-out: PI3K α IC50): < 1000 nM; IC50 (p110β/p85α; read-out: PI3K β IC50): < 10000 nM; IC50 (p110γ; read-out: PI3K γ IC50): < 1000 nM |
| CN1CCN(c2cnc3ccc(-c4ccc5sc(N)nc5c4)cc3n2)CC1 [compound 127] | – | – | – | – | – | IC50 (p110α/p85α; read-out: PI3K α IC50): < 1000 nM; IC50 (p110β/p85α; read-out: PI3K β IC50): < 100 nM; IC50 (p110γ; read-out: PI3K γ IC50): < 10000 nM |
| CN1CCCN(c2cnc3ccc(-c4ccc5oc(N)nc5c4)cc3n2)CC1 [compound 136] | – | – | – | – | – | IC50 (p110α/p85α; read-out: PI3K α IC50): < 1000 nM; IC50 (p110β/p85α; read-out: PI3K β IC50): < 1000 nM; IC50 (p110γ; read-out: PI3K γ IC50): < 10000 nM |
| CN1CCN(C(=O)c2cnc3ccc(-c4ccc5nc(N)oc5c4)cn23)CC1 [compound 145] | – | – | – | – | – | IC50 (p110α/p85α; read-out: PI3K α IC50): < 1000 nM; IC50 (p110β/p85α; read-out: PI3K β IC50): < 10000 nM; IC50 (p110γ; read-out: PI3K γ IC50): < 10000 nM |
| CN(CCN1CCOCC1)c1cnc2ccc(-c3ccc4oc(N)nc4c3)cc2n1 [compound 166] | – | – | – | – | – | IC50 (p110α/p85α; read-out: PI3K α IC50): < 1000 nM; IC50 (p110β/p85α; read-out: PI3K β IC50): < 10000 nM; IC50 (p110γ; read-out: PI3K γ IC50): < 10000 nM |
| Nc1nc2cc(-c3ccc4ncc(-c5ccccn5)nc4c3)ccc2o1 [compound 195] | – | – | – | – | – | IC50 (p110α/p85α; read-out: PI3K α IC50): < 1000 nM; IC50 (p110β/p85α; read-out: PI3K β IC50): < 10000 nM; IC50 (p110γ; read-out: PI3K γ IC50): < 100 nM |
| Nc1nc2cc(-c3ccc4ncc(C(=O)N5CCCCC5)n4c3)ccc2o1 [compound 196] | – | – | – | – | – | IC50 (p110α/p85α; read-out: PI3K α IC50): < 1000 nM; IC50 (p110β/p85α; read-out: PI3K β IC50): < 10000 nM; IC50 (p110γ; read-out: PI3K γ IC50): < 10000 nM |
| Nc1nc2cc(-c3ccc4nnc(-c5ccncc5)n4c3)ccc2o1 [compound 229] | < 1000 | < 1000 | < 10000 | – | – | – |
| CC(=O)Nc1nc2ccc(-c3ccc4nc(N)oc4c3)cc2s1 [compound 242] | < 100 | < 100 | < 100 | – | – | – |
| Nc1nc2ccc(-c3ccc4nc(N)sc4c3)cc2o1 [compound 243] | < 1000 | < 100 | < 100 | – | – | – |
| Nc1cn2cc(-c3ccc4oc(N)nc4c3)ccc2n1 [compound 245] | < 1000 | < 10000 | < 1000 | – | – | – |
| Nc1cn2cc(-c3ccc4nc(N)oc4c3)ccc2n1 [compound 247] | – | < 10000 | < 10000 | – | – | – |
| COCCn1cnc2ccc(-c3ccc4oc(N)nc4c3)cc2c1=O [compound 272] | < 1000 | < 10000 | < 10000 | – | – | – |
| Nc1nc2cc(-c3ccc4ncn(CCN5CCOCC5)c(=O)c4c3)ccc2o1 [compound 289] | < 1000 | < 10000 | < 1000 | – | – | – |
| C[C@H]1CN(c2cnc3ccc(-c4ccc5nc(N)sc5c4)cc3n2)CCN1 [compound 308] | < 1000 | < 1000 | < 10000 | – | – | – |
| C[C@H]1CN(c2cnc3ccc(-c4ccc5nc(N)oc5c4)cc3n2)CCN1 [compound 309] | < 1000 | < 1000 | < 10000 | – | – | – |
| Nc1nc2cc(-c3ccc4ncc(C(=O)N(CCO)CCO)n4c3)ccc2o1 [compound 316] | < 1000 | < 10000 | < 10000 | – | – | – |

| Compound | IC50 (p110α/p85α; [1]) [nM] | IC50 (p110β/p85α; [2]) [nM] | IC50 (p110γ; [3]) [nM] | IC50 (p110α/p85α; read-out: PI3K α In Vitro IC50) [nM] | IC50 (p110β/p85α; read-out: PI3K β In Vitro IC50) [nM] | other results |
| --- | --- | --- | --- | --- | --- | --- |
| Nc1nc2cc(-c3ccn4ncc(C(=O)N5CCCC5)c4c3)ccc2o1 [compound 346] | < 100 | < 10000 | < 1000 | – | – | – |
| Nc1nc2cc(-c3ccn4ncc(C(=O)N5CCOCC5)c4c3)ccc2o1 [compound 347] | < 1000 | < 10000 | < 1000 | – | – | – |
| Cc1cc(-c2ccc3ncc(C(=O)N4CCOCC4)n3c2)cc2nc(N)oc12 [compound 364] | < 1000 | < 10000 | < 1000 | – | – | – |
| CN(C)C1CN(c2cnc3ccc(-c4ccc5oc(N)nc5c4)cc3n2)C1 [compound 366] | < 100 | < 10000 | < 10000 | – | – | – |
| Nc1nc2cc(-c3ccc4ncc(N5CC(N6CCOCC6)C5)nc4c3)c(Cl)cc2o1 [compound 371] | < 1000 | < 10000 | – | – | – | – |
| CN1CCN(C(=O)c2cnn3ccc(-c4ccc5oc(N)nc5c4)cc23)CC1 [compound 380] | < 1000 | < 10000 | < 10000 | – | – | – |
| CN1CCC(c2cnc3ccc(-c4ccc5oc(N)nc5c4)cc3n2)CC1 [compound 385] | < 100 | < 10000 | – | – | – | – |
| COCCN1CCN(c2cnc3ccc(-c4ccc5oc(N)nc5c4)cc3n2)CC1 [compound 387] | < 100 | < 1000 | < 1000 | – | – | – |
| C[C@H]1CN(c2cnc3ccc(-c4ccc5oc(N)nc5c4)cc3c2)CCN1 [compound 396] | < 100 | < 100 | < 10000 | – | – | – |
| Nc1nc2cc(-c3ccc4ncc(C(=O)N5CCOCC5)n4c3)cnc2o1 [compound 400] | – | – | – | < 100 | < 10000 | IC50 (p110γ; read-out: PI3K γ In Vitro IC50): < 10000 nM |
| CNc1nc2cc(-c3ccc4ncc(C(=O)N5CCOCC5)n4c3)ccc2o1 [compound 406] | – | – | – | < 10000 | < 10000 | – |
| Nc1nc2cc(-c3ccc4c(N)n[nH]c4c3)ccc2o1 [compound 428] | – | – | – | < 10000 | < 10000 | IC50 (p110γ; read-out: PI3K γ In Vitro IC50): < 1000 nM |
| CC(=O)Nc1n[nH]c2cc(-c3ccc4oc(N)nc4c3)ccc12 [compound 430] | – | – | – | < 10000 | < 10000 | IC50 (p110γ; read-out: PI3K γ In Vitro IC50): < 10000 nM |
| Nc1nc2cc(-c3cc(F)c4oc(N)nc4c3)ccc2o1 [compound 432] | – | – | – | < 10000 | < 1000 | IC50 (p110γ; read-out: PI3K γ In Vitro IC50): < 100 nM |
| CC(=O)Nc1nc2cc(-c3cc(F)c4oc(N)nc4c3)ccc2s1 [compound 435] | – | – | – | < 10000 | < 10000 | IC50 (p110γ; read-out: PI3K γ In Vitro IC50): < 100 nM |
| Nc1nc2cc(-c3ccc4sc(N)nc4c3)cc(F)c2o1 [compound 437] | – | – | – | < 10000 | < 1000 | IC50 (p110γ; read-out: PI3K γ In Vitro IC50): < 1000 nM |
| Cc1cc(-c2ccc3nc(N)oc3c2)cn2c(C(=O)N3CCOCC3)cnc12 [compound 449] | – | – | – | < 1000 | < 1000 | IC50 (p110γ; read-out: PI3K γ In Vitro IC50): < 100 nM |
| Nc1nc2cc(-c3ccc4ncc(C(=O)N5CC(F)C5)n4c3)ccc2o1 [compound 468] | – | – | – | < 100 | < 10000 | IC50 (p110γ; read-out: PI3K γ In Vitro IC50): < 100 nM |
| Nc1nc2cc(-c3ccc4ncc(C(=O)N5CCn6cncc6C5)n4c3)ccc2o1 [compound 493] | – | – | – | < 100 | < 1000 | IC50 (p110γ; read-out: PI3K γ In Vitro IC50): < 10000 nM |
| Nc1nc2cc(-c3ccc4ncc(C(=O)N5CC6(C5)OCCO6)n4c3)ccc2o1 [compound 494] | – | – | – | < 100 | < 10000 | IC50 (p110γ; read-out: PI3K γ In Vitro IC50): < 1000 nM |
| C[C@@H]1COCCN1C(=O)c1cnc2ccc(-c3ccc4oc(N)nc4c3)cn12 [compound 495] | – | – | – | < 100 | < 10000 | IC50 (p110γ; read-out: PI3K γ In Vitro IC50): < 1000 nM |
| Nc1nc2c(-c3ccc4ncc(C(=O)N5CCOCC5)n4c3)cccc2o1 [compound 496] | – | – | – | < 1000 | < 10000 | IC50 (p110γ; read-out: PI3K γ In Vitro IC50): < 10000 nM |
| CN1CC(n2cnc3ccc(-c4ccc5oc(N)nc5c4)cc3c2=O)C1 [compound 528] | – | – | – | < 1000 | < 10000 | – |
